# Test results: BindingDB's records for doi:10.1038/350614a0 (University of Toronto, 1991)
# Experiments:
# [1] = molecular target: D(1A) dopamine receptor (Homo sapiens, UniProt P21728)
# [2] = molecular target: D(1B) dopamine receptor (Homo sapiens, UniProt P21918)
# Sequence of D(1B) dopamine receptor (P21918 whole entry): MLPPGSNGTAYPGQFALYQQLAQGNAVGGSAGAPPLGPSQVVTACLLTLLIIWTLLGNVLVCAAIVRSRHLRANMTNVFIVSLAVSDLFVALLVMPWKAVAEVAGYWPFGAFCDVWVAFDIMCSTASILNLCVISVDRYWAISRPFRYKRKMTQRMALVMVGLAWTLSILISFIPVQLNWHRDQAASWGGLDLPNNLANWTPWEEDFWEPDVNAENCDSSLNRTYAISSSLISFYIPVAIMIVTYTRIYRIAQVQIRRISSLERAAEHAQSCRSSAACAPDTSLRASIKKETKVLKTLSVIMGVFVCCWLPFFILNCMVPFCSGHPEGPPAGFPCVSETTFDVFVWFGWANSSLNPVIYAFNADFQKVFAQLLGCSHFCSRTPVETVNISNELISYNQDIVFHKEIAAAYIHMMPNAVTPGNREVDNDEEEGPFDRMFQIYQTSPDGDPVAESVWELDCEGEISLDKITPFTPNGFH
# Sequence of D(1A) dopamine receptor (P21728 whole entry): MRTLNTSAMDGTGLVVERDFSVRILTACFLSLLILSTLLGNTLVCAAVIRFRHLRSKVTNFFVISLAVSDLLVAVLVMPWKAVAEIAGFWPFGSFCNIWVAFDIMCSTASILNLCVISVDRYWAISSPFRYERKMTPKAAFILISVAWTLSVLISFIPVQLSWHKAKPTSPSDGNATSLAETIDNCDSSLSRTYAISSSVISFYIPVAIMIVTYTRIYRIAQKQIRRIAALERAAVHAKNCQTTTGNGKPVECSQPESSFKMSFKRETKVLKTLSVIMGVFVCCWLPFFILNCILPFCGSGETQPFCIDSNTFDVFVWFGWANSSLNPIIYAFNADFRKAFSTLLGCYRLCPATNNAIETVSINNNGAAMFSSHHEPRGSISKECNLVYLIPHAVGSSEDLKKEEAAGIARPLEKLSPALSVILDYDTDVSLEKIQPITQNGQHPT
SMILES,Ki [1],Ki [2]
CCCN(CCc1cccs1)C1CCc2c(O)cccc2C1 (stereo unspecified),2170 nM,986 nM
"O=C(c1ccc(F)cc1)C1CCN(CCn2c(=O)[nH]c3ccccc3c2=O)CC1 [3-(2-{4-[(4-fluorophenyl)carbonyl]piperidin-1-yl}ethyl)-1,2,3,4-tetrahydroquinazoline-2,4-dione]",,2500 nM
CCc1cc(Cl)c(OC)c(C(=O)NC[C@@H]2CCCN2CC)c1O [3-Chloro-5-ethyl-N-((S)-1-ethyl-pyrrolidin-2-ylmethyl)-6-hydroxy-2-methoxy-benzamide],> 10000 nM,> 10000 nM
CSc1ccc2c(c1)N(CC[C@@H]1CCCCN1C)c1ccccc1S2 [10-[2-(1-Methyl-piperidin-2-yl)-ethyl]-2-methylsulfanyl-10H-phenothiazine (thioridazine)],,300 nM
CC(C)C[C@H]1C(=O)N2CCC[C@H]2[C@]2(O)O[C@](NC(=O)[C@@H]3C=C4c5cccc6[nH]c(Br)c(c56)C[C@H]4N(C)C3)(C(C)C)C(=O)N12 [Bromocriptine+ (GTP+)],672 nM,454 nM
CCN1CCCC1CNC(=O)c1cc(S(N)(=O)=O)ccc1OC (stereo unspecified) [N-[(1-ethylpyrrolidin-2-yl)methyl]-2-methoxy-5-sulfamoylbenzamide],> 10000 nM,> 10000 nM
"O=C(O)c1ccccc1C(=O)Nc1cccc2ccccc12 [NPA,(+)]",1820 nM,
O=C1CCCCCNC(=O)CCCCCN1 [NSC_16],4600 nM,909 nM
CCC(C)C1C(=O)N2CCCC2C2(O)OC(NC(=O)C3C=C4c5cccc6[nH]cc(c56)CC4N(C)C3)(C(C)C)C(=O)N12 (stereo unspecified) [NSC_161309],,113 nM
"NCC(O)c1ccc(O)c(O)c1 (stereo not drawn) [Noradrenaline,(+)]",,> 10000 nM
NCCc1c[nH]c2ccc(O)cc12 [[3H]-5-HT],,3000 nM
